Measurements as given in patent publication US6706727B1, “Macrolides” (Novartis AG, priority 2002, dated 2004).

System: CD4+ antigen-specific human helper T-cell clone (TCC)
Experiment: Antigen-specific stimulation of the helper T-cell clone (TCC) by monocyte-derived dendritic cells, T-cell proliferation (3H-thymidine)
Type: cell-based
Settings: Dpt-pulsed M-DC, M-DC/T-cell ratio 1/50, 4 day culture
Text: This activity is further evidenced in additional testing with the above helper T-cell clone and monocyte-derived dendritic cells:
The CD4^+ antigen-specific human helper T-cell clone (TCC) is established by limiting dilution culture (Van Reijsen T. C. et al, J. Allergy Clin. Immunol. 90 [1992] 184-193). The TCC recognizes a peptide derived from the major allergen Der p1 of the house dust mite Dermatophagoides pteronyssinus (Dpt) in association with the MHC class II restriction molecule HLA-DPw4 (Baselmnns P. J. et al., Human Immunol. 61 [2000] 789-798). To obtain sufficient cell numbers for assay purposes, the TCC is expanded in vitro by activation with immobilized anti-CD3 monoclonal antibody (Leu4, Becton Dickinson, San Jose, Calif., USA) and culture in complete medium supplemented with rIL-2 and rhIL-4 (50 U/ml each) (Van Reijsen et al., supra).
Human monocyte-derived dendritic cells (M-DC) are generated from purified monocytes by culturing in RPMI 1640 culture medium at a cell density of 7×10^5 cells/ml. The culture medium is supplemented with 15% FCS and rh-GM-CSF (300 U/ml) and rh-IL-4 (100 U/ml). At day 7 of culture, 90-95% of the cells express the phenotype of M-DC as verified by flow cytometry and they are used for antigen-specific stimulation of the TCC, which is used at least 14 days after the last challenge by antigen or anti-CD3 mAb to ensure a resting state of the cells. For antigen-specific stimulation, the M-DC are incubated overnight (at least 12 h) in culture medium containing 50 μ/ml of the extract of Dpt (ARTU Biologicals NV, Lelystad, The Netherlands). The content of the major allergen Der p1 used is about 18.5 μg/mg of Dpt extract. The M-DC are washed twice and 50 μl aliquots of the final number of M-DC are added to 5×10^4 T-cells per well in 100 μl medium, giving a M-DC/T-cell ratio of 1/50. Immediately thereafter, 50 μl aliquots of a four-fold final concentration of test compound are added. Each sample is tested in quadruplicate. The test compound is dissolved in ethanol to provide a stock solution of 1 mM and diluted 1/1000 in the complete culture medium that is also used to prepare the final test compound dilution. T-cell proliferation is determined by pulsing with 1 μCi/20 μl/well of (methyl-)^3H-thymidine (Amersham, U.K) during the final 16 hours of a 4 day culture period.

Compound | IC50 [nM]
CC[C@H]1C/C(C)=C/[C@@H](CC)C(=O)C[C@H](O)[C@@H](C)[C@@H](/C(C)=C/[C@@H]2CC[C@@H](O)[C@H](OC)C2)OC(=O)[C@@H]2CCCCN2C(=O)C(=O)[C@]2(O)O[C@H]([C@@H](OC)C1)[C@@H](OC)C[C@H]2C [21-ethyl-ascomycin] | 0.33
CC[C@@H]1C[C@H](OC)[C@@H]2O[C@@]1(O)C(=O)C(=O)N1CCCC[C@H]1C(=O)O[C@H](/C(C)=C/[C@@H]1CC[C@@H](O)[C@H](OC)C1)[C@H](C)[C@@H](O)CC(=O)[C@H](CC)/C=C(\C)C[C@H](C)C[C@@H]2OC [27-ethyl-ascomycin] | 0.88
CC/C1=C\[C@@H](CC)C(=O)C[C@H](O)[C@@H](C)[C@@H](/C(C)=C/[C@@H]2CC[C@H](Cl)[C@H](OC)C2)OC(=O)[C@@H]2CCCCN2C(=O)C(=O)[C@]2(O)O[C@H]([C@@H](OC)C[C@@H](C)C1)[C@@H](OC)C[C@H]2C [Compound 19-ethyl-ASM] | 6.8
CC[C@H]1C/C(C)=C/[C@@H](CC)C(=O)C[C@H](O)[C@@H](C)[C@@H](/C(C)=C/[C@@H]2CC[C@H](Cl)[C@H](OC)C2)OC(=O)[C@@H]2CCCCN2C(=O)C(=O)[C@]2(O)O[C@H]([C@@H](OC)C1)[C@@H](OC)C[C@H]2C [Compound 21-ethyl-ASM] | 1.6
CC[C@@H]1C[C@H](OC)[C@@H]2O[C@@]1(O)C(=O)C(=O)N1CCCC[C@H]1C(=O)O[C@H](/C(C)=C/[C@@H]1CC[C@H](Cl)[C@H](OC)C1)[C@H](C)[C@@H](O)CC(=O)[C@H](CC)/C=C(\C)C[C@H](C)C[C@@H]2OC [Compound 27-ethyl-ASM] | 4.6
